What was measured:
benzidine skin sarcoma = assay: Anti-cancer activity on benzidine skin sarcoma in Barbados mice; format: in vivo; details: mice with benzidine sarcoma
Protocol: Study of the Anti-Cancer Activity of Anticanum on Benzidine Sarcoma. Before applying it to the silica gel, 7 ml of a solution of 2% benzidine and 0.9% sodium chloride was added until an opalescent suspension was formed (1 g silica gel for 5 ml NaCl solution). Twenty-five Barbados mice of both sexes with a weight of 18-20 g that were kept on a vivarium diet were administered benzidine and phorbol acetate immobilized on silica gel subcutaneously near the neck every three days. After two weeks, 18 animals had developed tumors of different sizes in the form of a small bump on the neck near the silica gel granulomas. Each group of animals was administered the corresponding compound parenterally at a dose of 100 mcg/kg weight twice a day for two weeks, beginning at 16 days after administration of the carcinogen.

HeLa cells = assay: Effect of MPs on HeLa cells: number of surviving cells versus concentration; format: cell-based
Description: In establishing the minimum concentration of MPs that will slow the growth of cells, a comparison was made between the number of surviving cells and the concentration of MPs in the solution.

In the case of `CC(=O)O[C@@]12CO[C@@H]1C[C@H](O)[C@@]1(C)C(=O)[C@H](O)C3=C(C)[C@@H](OC(=O)[C@H](O)[C@@H](NC(=O)OC(C)(C)C)c4ccccc4)C[C@@](O)([C@@H](OC(=O)c4ccccc4)[C@H]21)C3(C)C` [Taxotere], the “Weight of Animal, Before Treatment” value (benzidine skin sarcoma) is reported as 27 ± 2 g, the “Number of live cells after incubation, %” value (HeLa cells; dose 20 mcg/ml) is reported as 93% and the “Number of live cells after incubation, %” value (HeLa cells; dose 40 mcg/ml) is reported as 91%. For the same molecule, the “Number of live cells after incubation, %” value (HeLa cells; dose 60 mcg/ml) was 0.12%, the “Number of live cells after incubation, %” value (HeLa cells; dose 100 mcg/ml) was 92% and the “Number of live cells after incubation, %” value (HeLa cells; dose 120 mcg/ml) was 101%.
